Results reported in patent US20110046147A1, “17BETA-HYDROXYSTEROID DEHYDROGENASE TYPE 1 INHIBITORS FOR THE TREATMENT OF HORMONE-RELATED DISEASES” (UNIVERSITAT DES SAARLANDES, priority 2007, published 2011).

Assays:
17β-HSD1 = target: T1, 17β-HSD1 (Homo sapiens, UniProt P14061); experiment: Inhibition of 17β-HSD1 (estrone to estradiol, radio-HPLC); assay type: biochemical; conditions: for IC50: human placenta enzyme, 500 nM estrone, NADH 500 μM; for Selectivity IC50 (17β-HSD2)/IC50 (17β-HSD1): ratio of IC50 values
T1 construct: In both cases, human placenta served as the enzyme source; from tissue; host or cells: human placenta
T1 sequence (P14061 1-328): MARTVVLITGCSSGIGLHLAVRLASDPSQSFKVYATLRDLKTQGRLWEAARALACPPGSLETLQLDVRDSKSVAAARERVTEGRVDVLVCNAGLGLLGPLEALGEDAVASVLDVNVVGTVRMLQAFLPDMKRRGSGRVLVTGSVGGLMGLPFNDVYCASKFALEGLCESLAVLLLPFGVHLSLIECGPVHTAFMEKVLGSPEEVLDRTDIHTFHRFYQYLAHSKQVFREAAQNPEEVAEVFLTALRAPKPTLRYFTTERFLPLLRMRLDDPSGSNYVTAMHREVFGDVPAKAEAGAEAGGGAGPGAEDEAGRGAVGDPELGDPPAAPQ
Experimental: In the 17β-HSD1 test, NADH is employed as a cosubstrate at a final concentration of 500 μM in order to avoid the product inhibition occurring with NADPH. The enzyme preparation is diluted with test buffer to such an extent that the control conversion is 10 to maximally 20% (about 1:650). As the substrate, estrone in a final concentration of 500 nM is used, of which 3 nM is tritiated. 2,4,6,7-[^3H]estrone is purchased from Perkin-Elmer, Boston. The inhibitor is added as a solution in DMSO (control: pure DMSO without inhibitor; the final concentration of DMSO in the assay is 1% in all cases).
(§1) After the reaction, the substrate and product are extracted by partitioning with ether, separated by chromatography (HPLC) and quantified by means of radiodetection.

17β-HSD2 = target: T2, 17β-HSD2 (Homo sapiens, UniProt P37059); experiment: Inhibition of 17β-HSD2 (estradiol to estrone, radio-HPLC); assay type: biochemical; conditions: human placenta microsome fraction, 500 nM estradiol, NAD+ 1500 μM
T2 construct: from tissue; host or cells: human placenta, microsome fraction
T2 sequence (P37059 1-387): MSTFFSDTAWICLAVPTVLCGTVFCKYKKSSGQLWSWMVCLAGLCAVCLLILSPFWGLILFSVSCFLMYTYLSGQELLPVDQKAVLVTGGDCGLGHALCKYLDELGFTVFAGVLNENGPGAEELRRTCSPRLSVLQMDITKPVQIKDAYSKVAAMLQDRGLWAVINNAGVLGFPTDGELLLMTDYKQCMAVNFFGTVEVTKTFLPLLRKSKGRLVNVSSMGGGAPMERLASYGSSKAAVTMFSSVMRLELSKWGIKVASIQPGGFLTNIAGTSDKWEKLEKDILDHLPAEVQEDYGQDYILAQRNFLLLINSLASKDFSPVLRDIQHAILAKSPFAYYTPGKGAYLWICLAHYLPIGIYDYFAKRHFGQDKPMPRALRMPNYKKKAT
Experimental: Determination of the inhibitory activity of the potential inhibitors: Inhibition of 17β-HSD1 and 17β-HSD2: In both cases, human placenta served as the enzyme source (Lin, S.-X. et al., J. Biol. Chem., 267: 16182-16187 (1992)).
In the 17β-HSD2 test, the natural cosubstrate NAD^+ is employed at a final concentration of 1500 μM. The microsome fraction is diluted in test buffer, so that a control conversion of 20 to 30% results (about 1:350). As the substrate, estradiol in a final concentration of 500 nM is used, of which 3 nM is tritiated. 2,4,6,7-[^3H]estradiol is also purchased from Perkin-Elmer, Boston. The inhibitor is added as a solution in DMSO (control: pure DMSO without inhibitor; the final concentration of DMSO in the assay is […]). After the addition of the substrate, incubation is performed at 37° C. for 20 minutes. The reaction is quenched by the addition of HgCl2 (final concentration of HgCl2: 0.166 mM).
as §1

CaCo2 transport assay = assay type: in vitro ADME; conditions: human, Caco-2; 50 μM in donor compartment; read-out: Papp [cm/sec ± rel. SD]
Experimental: (§2) Performance of selected compounds in a CaCo2 assay: Caco-2 cell culture and transport experiments were performed according to Yee (Yee, S., Pharm. Res., 14(6): 763-766 (1997)), but slight modifications were introduced. The cultivation times were reduced from 21 to 10 days by increasing the sowing density from 6.3·10^4 to 1.65·10^5 cells per well. […] The initial concentration of the compounds in the donor compartment was 50 μM (in buffer with 1% ethanol or DMSO). Samples were taken from the acceptor side after 60, 120 and 180 min and from the donor side after 0 and 180 min. For glycoprotein P (P-gp) studies, bidirectional experiments were performed. The absorptive and secretory permeabilities (Papp (a-b) and Papp (b-a)) were determined. Thus, erythromycin was used as a substrate, and verapamil was used as an inhibitor of P-gp. Each experiment was performed in triplicate. The integrity of the monolayer was determined by means of TEER (transepithelial electric resistance) and the permeability for each assay was determined using Lucifer Yellow. All samples of the CaCo-2 transport experiments were analyzed by means of LC/MS/MS after dilution with buffer (1:1 with 2% acetic acid). The apparent permeability coefficient (Papp) was calculated by means of the formula given below, where dQ/dt represents the recovery rate of the mass in the acceptor compartment, A represents the surface area of the transwell membrane, and c0 represents the initial concentration in the donor compartment.

CaCo-2 cells = experiment: CaCo2 transport assay; assay type: in vitro ADME; conditions: 50 μM in donor compartment
Experimental: as §2

[1] = In vivo pharmacokinetics (rat), peroral cassette dosing; parameters: species or system Wistar rats; conditions: 10 mg/kg; for AUC(0-inf): extrapolated to ∞
Experimental: In vivo pharmacokinetics (rat): The compounds 29, 45, 47 and 59 and a reference compound were administered to adult male Wistar rats (n=4) perorally in a cassette dosing method (vehicle: Labrasol/water 1/1). The plasma profiles were established by means of LC-MS/MS.
• Cmax obs highest measured concentration • Cz last analytically quantifiable concentration • tmax obs time to reach the highest measured concentration • tz time to withdrawal of the last sample with analytically quantifiable concentration • t1/2z half life (determined from the slope of the declining portion of the concentration vs. time curve • AUC0-tz area below the concentration vs. time curve up to time tZ • AUC0-∞ area below the concentration vs. time curve, extrapolated to ∞

SMILES | IC50 (17β-HSD1) [nM] | Selectivity IC50 (17β-HSD2)/IC50 (17β-HSD1) (17β-HSD1) | IC50 (17β-HSD2) [nM] | Papp at 180 min, 50 μM (CaCo2 transport assay) [×10⁻⁶ cm/s] | Permeability (class in words) (CaCo-2 cells) | t1/2z (half life) [1] [h] | tmax obs (time to reach the highest measured concentration) [1] [h] | tz (time of last sample with quantifiable concentration) [1] [h] | Cz (last analytically quantifiable concentration) ([1]; plasma) [ng/mL] | AUC(0-t) ([1]; male, Wistar, plasma, po) [ng·h/mL] | AUC(0-inf) ([1]; male, Wistar, plasma, po) [ng·h/mL] | half-life ([1]; male, Wistar, plasma, po, read-out: t1/2z (half life) (converted)) [h] | Tmax ([1]; male, Wistar, plasma, po, read-out: tmax obs (time to reach the highest measured concentration)) [h]
Oc1ccc(-c2cnc(-c3cccc(O)c3)o2)cc1 [Compound 8, 3-[5-(4-Hydroxyphenyl)-1,3-oxazole-2-yl]phenol] | 570 | 1.8 | 1020 | 7.9 | medium-high | – | – | – | – | – | – | – | –
Oc1ccc(-c2cc(-c3cccc(O)c3)on2)cc1 [Compound 18, 3-[3-(4-Hydroxyphenyl)isoxazole-5-yl]phenol] | 560 | 1.4 | 800 | 7.3 | medium-high | – | – | – | – | – | – | – | –
Oc1ccc(-c2cnc(-c3cccc(O)c3)s2)cc1 [Compound 19, 3-[5-(4-Hydroxyphenyl)-1,3-thiazole-2-yl]phenol] | 50 | 80 | 4000 | 7.8 | medium-high | – | – | – | – | – | – | – | –
Oc1ccc(-c2ncc(-c3cccc(O)c3)s2)cc1 [Compound 20, 3-[2-(4-Hydroxyphenyl)-1,3-thiazole-5-yl]phenol] | 180 | 17 | 3100 | 11.7 | high | – | – | – | – | – | – | – | –
Oc1cccc(-c2nsc(-c3cccc(O)c3)n2)c1 [Compound 37] | 180 | 3.3 | 600 | 3.6 | medium | – | – | – | – | – | – | – | –
Cc1cc(-c2ccc(-c3cccc(O)c3)s2)ccc1O [Compound 45, 4-[5-(3-Hydroxyphenyl)-2-thienyl]-2-methylphenol] | 40 | 49 | 1970 | – | – | 3.8 | 4.0 | 24.0 | 43.4 | 12000 | 12300 | – | –
Oc1cccc(-c2ccc(-c3ccc(O)c(F)c3)s2)c1 [Compound 47, 2-Fluoro-4-[5-(3-hydroxyphenyl)-2-thienyl]phenol] | 10 | 94 | 940 | – | – | 2.7 | 8.0 | 24.0 | 25 | 19300 | 19400 | – | –
Cc1cc(O)cc(-c2ccc(-c3ccc(O)cc3)s2)c1 [Compound 53, 3-[5-(4-Hydroxyphenyl)-2-thienyl]-5-methylphenol] | 450 | – | – | 24.2 | high | – | – | – | – | – | – | – | –
Cc1cc(-c2csc(-c3cccc(O)c3)c2)ccc1O [Compound 55, 4-[5-(3-Hydroxyphenyl)-3-thienyl]-2-methylphenol] | 100 | 8.7 | 870 | – | – | – | – | – | – | – | – | – | –
Cc1cc(-c2cnc(-c3cccc(O)c3)s2)ccc1O [Compound 56, 4-[2-(3-Hydroxyphenyl)-1,3-thiazole-5-yl]-2-methylphenol] | 100 | 20 | 2020 | – | – | – | – | – | – | – | – | – | –
Oc1cccc(-c2ccc(-c3cccc(O)c3)nc2)c1 [Compound 57, 3,3′-Pyridine-2,5-diyldiphenol] | 100 | 34 | 3400 | – | – | – | – | – | – | – | – | – | –
Oc1cccc(-c2cnc(-c3cccc(O)c3)cn2)c1 [Compound 58, 3,3′-Pyrazine-2,5-diyldiphenol] | 1000 | 5.5 | 5500 | – | – | – | – | – | – | – | – | – | –
Oc1cccc(-c2nnc(-c3cccc(O)c3)nn2)c1 [Compound 59, 3,3′-(1,2,4,5-Tetrazine-3,6-diyl)diphenol] | 200 | 26 | 5100 | – | – | – | – | 10.0 | 54 | 1200 | 1200 | 1.2 | 3
